The values that follow come from patent US9670157B2, “Benzylamine derivatives” (KALVISTA PHARMACEUTICALS LIMITED, priority 2013, dated 2017).

For one assay, the target named is Human plasma kallikrein (Homo sapiens (Human), UniProt P03952). In words: Determination of the IC50 for Plasma Kallikrein. In kind it is biochemical. The conditions noted are these: 37° C., fluorogenic substrate H-DPro-Phe-Arg-AFC; read-out: IC50 (human PKal). The method, then: Human plasma kallikrein (Protogen) was incubated at 37° C. with the fluorogenic substrate H-DPro-Phe-Arg-AFC and various concentrations of the test compound. Residual enzyme activity (initial rate of reaction) was determined by measuring the change in optical absorbance at 410 nm and the IC50 value for the test compound was determined.
Human plasma kallikrein, sequence (P03952 391-638): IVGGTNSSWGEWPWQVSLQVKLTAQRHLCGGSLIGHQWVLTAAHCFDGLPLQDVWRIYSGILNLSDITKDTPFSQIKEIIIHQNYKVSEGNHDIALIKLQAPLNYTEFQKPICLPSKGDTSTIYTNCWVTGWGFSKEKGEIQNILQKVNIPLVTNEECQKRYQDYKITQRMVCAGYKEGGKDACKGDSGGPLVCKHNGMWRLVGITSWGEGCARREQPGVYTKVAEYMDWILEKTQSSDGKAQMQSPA
Human plasma kallikrein, sequence (P03952 20-390 partner): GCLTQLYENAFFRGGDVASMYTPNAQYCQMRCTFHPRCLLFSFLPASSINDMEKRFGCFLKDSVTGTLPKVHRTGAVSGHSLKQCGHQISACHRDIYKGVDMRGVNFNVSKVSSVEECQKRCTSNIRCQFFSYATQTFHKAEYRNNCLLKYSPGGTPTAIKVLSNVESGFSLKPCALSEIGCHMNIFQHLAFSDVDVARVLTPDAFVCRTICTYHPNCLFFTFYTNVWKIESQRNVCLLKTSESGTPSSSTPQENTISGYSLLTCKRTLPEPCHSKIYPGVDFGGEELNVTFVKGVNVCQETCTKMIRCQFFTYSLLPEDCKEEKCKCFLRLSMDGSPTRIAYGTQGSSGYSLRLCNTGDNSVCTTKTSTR

For the next assay, the target named is Human KLK1 (Homo sapiens (Human), UniProt P06870). In words: Determination of the IC50 for KLK1. It is filed as biochemical. The note with it: 37° C., fluorogenic substrate H-DVal-Leu-Arg-AFC. As for the experimental part: KLK1 inhibitory activity in vitro was determined using standard published methods (see e.g. Johansen et al., Int. J. Tiss. Reac. 1986, 8, 185; Shori et al., Biochem. Pharmacol., 1992, 43, 1209; Stürzebecher et al., Biol. Chem. Hoppe-Seyler, 1992, 373, 1025). Human KLK1 (Callbiochem) was incubated at 37° C. with the fluorogenic substrate H-DVal-Leu-Arg-AFC and various concentrations of the test compound. Residual enzyme activity (initial rate of reaction) was determined by measuring the change in optical absorbance at 410 nm and the IC50 value for the test compound was determined.
Human KLK1, sequence (P06870 25-262): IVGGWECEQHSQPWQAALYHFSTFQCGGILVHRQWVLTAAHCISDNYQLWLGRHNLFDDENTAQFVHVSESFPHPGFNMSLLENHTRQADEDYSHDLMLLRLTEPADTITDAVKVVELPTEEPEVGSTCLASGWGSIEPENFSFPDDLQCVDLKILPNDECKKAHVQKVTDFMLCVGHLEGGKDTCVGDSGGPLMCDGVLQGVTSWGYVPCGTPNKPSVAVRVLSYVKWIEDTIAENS

Molecules are shown by their SMILES.

As a reminder, the IC50 is the midpoint of a concentration-inhibition curve. Turning to `Cc1cc(CN)cc(C)c1CNC(=O)c1cc(C)n(Cc2csc(-c3ccccc3)n2)c1C` [Example 3, 2,5-Dimethyl-1-(2-phenyl-thiazol-4-ylmethyl)-1H-pyrrole-3-carboxylic acid 4-aminomethyl-2,6-dimethyl-benzylamide], the figures for the IC50 at Human plasma kallikrein and against Human KLK1 were 0.006 µM and over 10 µM, respectively.
Take `Cc1cc(C(=O)NCc2ccc(C3(N)CC3)cc2)c(C)n1Cc1csc(-c2ccccc2)n1` [Example 4, 2,5-Dimethyl-1-(2-phenyl-thiazol-4-ylmethyl)-1H-pyrrole-3-carboxylic acid 4-(1-amino-cyclopropyl)-benzylamide]: the IC50 was 0.121 µM at Human plasma kallikrein and over 10 µM at Human KLK1.
For `Cc1cc(C(=O)NCc2ccc(CN)cc2)c(C)n1Cc1csc(-c2cccnc2)c1` [Example 8, 2,5-Dimethyl-1-(5-pyridin-3-yl-thiophen-3-ylmethyl)-1H-pyrrole-3-carboxylic acid 4-aminomethyl-benzylamide], the IC50 stood at 0.348 µM on Human plasma kallikrein and 6.36 µM at Human KLK1.
As for `Cc1cc(C(=O)NCc2ccc(CN)cc2)c(C)n1Cc1csc(-c2ccccc2)c1` [Example 10, 2,5-Dimethyl-1-(5-phenyl-thiophen-3-ylmethyl)-1H-pyrrole-3-carboxylic acid 4-aminomethyl-benzylamide], the IC50 on Human plasma kallikrein was 0.571 µM; against Human KLK1, over 10 µM.
For `Cc1cc(C(=O)NCc2ccc(CN)cc2)c(C)n1Cc1cc(-c2ccccc2)no1` [Example 11, 2,5-Dimethyl-1-(3-phenyl-isoxazol-5-ylmethyl)-1H-pyrrole-3-carboxylic acid 4-aminomethyl-benzylamide] the same measures were 2.42 µM and over 10 µM.
Regarding `Cc1cc(C(=O)NCc2ccc(CN)cc2)c(C)n1Cc1nc2ccccc2s1` [Example 12, 1-Benzothiazol-2-ylmethyl-2,5-dimethyl-1H-pyrrole-3-carboxylic acid 4-aminomethyl-benzylamide], the values for the IC50 on Human plasma kallikrein and against Human KLK1 were 5.12 µM and over 10 µM, respectively.
For `Cc1cc(C(=O)NCc2ccc(CN)cc2)c(C)n1Cc1cc(-c2cccnc2)cs1` [Example 13, 2,5-Dimethyl-1-(4-pyridin-3-yl-thiophen-2-ylmethyl)-1H-pyrrole-3-carboxylic acid 4-aminomethyl-benzylamide], the IC50 at Human plasma kallikrein is 2.38 µM; against Human KLK1, over 10 µM.
For `Cc1cc(C(=O)NCc2ccc(CN)cc2)c(C)n1Cc1cc(-c2ccncc2)cs1` [Example 14, 2,5-Dimethyl-1-(4-pyridin-4-yl-thiophen-2-ylmethyl)-1H-pyrrole-3-carboxylic acid 4-aminomethyl-benzylamide], the IC50 on Human plasma kallikrein worked out at 2.29 µM; against Human KLK1, 6.37 µM.
As to `Cc1cc(C(=O)NCc2ccc(CN)cc2)c(C)n1Cc1cccc(N2CCOCC2)n1` [Example 15, 2,5-Dimethyl-1-(6-morpholin-4-yl-pyridin-2-ylmethyl)-1H-pyrrole-3-carboxylic acid 4-aminomethyl-benzylamide], the IC50 on Human plasma kallikrein is 5.69 µM; on Human KLK1, over 10 µM.
For the compound `Cc1cc(C(=O)NCc2ccc(CN)cc2)c(C)n1Cc1cccc(-c2ccccc2)n1` [Example 16, 2,5-Dimethyl-1-(6-phenyl-pyridin-2-ylmethyl)-1H-pyrrole-3-carboxylic acid 4-aminomethyl-benzylamide], the IC50 at Human plasma kallikrein was 0.186 µM; at Human KLK1 it was over 10 µM.
On to `Cc1cc(C(=O)NCc2ccc(CN)cc2)c(C)n1Cc1cccc(-c2cccnc2)n1` [Example 17, 1-[2,3′]Bipyridinyl-6-ylmethyl-2,5-dimethyl-1H-pyrrole-3-carboxylic acid 4-aminomethyl-benzylamide], for which the IC50 at Human plasma kallikrein is 0.492 µM; on Human KLK1, over 10 µM.
`Cc1cc(C(=O)NCc2ccc(CN)cc2)c(C)n1Cc1coc(-c2ccccc2)n1` [Example 18, 2,5-Methyl-1-(2-phenyl-oxazol-4-ylmethyl)-1H-pyrrole-3-carboxylic acid 4-aminomethyl-benzylamide]: the IC50 was 0.435 µM on Human plasma kallikrein and over 10 µM on Human KLK1.
`Cc1oc(-c2ccccc2)nc1Cn1c(C)cc(C(=O)NCc2ccc(CN)cc2)c1C` [Example 19, 2,5-Dimethyl-1-(5-methyl-2-phenyl-oxazol-4-ylmethyl)-1H-pyrrole-3-carboxylic acid 4-aminomethyl-benzylamide]: the IC50 is 0.768 µM at Human plasma kallikrein and over 10 µM at Human KLK1.
Regarding `Cc1cc(C(=O)NCc2ccc(CN)cc2)c(C)n1Cc1cccs1` [Example 20, 2,5-Dimethyl-1-thiophen-2-ylmethyl-1H-pyrrole-3-carboxylic acid 4-amidomethyl-benzylamide], the results for the IC50 on Human plasma kallikrein and against Human KLK1 were 4.95 µM and 2.4 µM, respectively.
Regarding `Cc1cc(C(=O)NCc2ccc(CN)cc2)c(C)n1Cc1ccc(-c2ccccc2)s1` [Example 22, 2,5-Dimethyl-1-(5-phenyl-thiophen-2-ylmethyl)-1H-pyrrole-3-carboxylic acid 4-aminomethyl-benzylamide], the IC50 was 3.27 µM on Human plasma kallikrein and over 10 µM on Human KLK1.
In the case of `Cc1nc(-c2ccc(Cn3c(C)cc(C(=O)NCc4ccc(CN)cc4)c3C)s2)cs1` [Example 23, 2,5-Dimethyl-1-[5-(2-methyl-thiazol-4-yl)-thiophen-2-ylmethyl]-1H-pyrrole-3-carboxylic acid 4-aminomethyl-benzylamide], the IC50 is 1.6 µM at Human plasma kallikrein and over 10 µM against Human KLK1.
For `Cc1cc(C(=O)NCc2ccc(CN)cc2)c(-c2ccccc2)n1Cc1csc(-c2ccccc2)n1` [Example 24, 5-Methyl-2-phenyl-1-(2-phenyl-thiazol-4-ylmethyl)-1H-pyrrole-3-carboxylic acid 4-aminomethyl-benzylamide] the same measures were 0.431 µM and over 10 µM.
On to `Cc1c(C(=O)NCc2ccc(CN)cc2)ccn1Cc1csc(-c2ccccc2)n1` [Example 25, 2-Methyl-1-(2-phenyl-thiazol-4-ylmethyl)-1H-pyrrole-3-carboxylic acid 4-aminomethyl-benzylamide], for which the figures for the IC50 at Human plasma kallikrein and against Human KLK1 were 1.33 µM and over 10 µM, respectively.
In the case of `Cc1cc(C(=O)NCc2ccc(CN)cc2)c(C)n1Cc1csc(-c2cccs2)n1` [Example 26, 2,5-Dimethyl-1-[2-(2-thienyl)-thiazol-4-ylmethyl]-1H-pyrrole-3-carboxylic acid 4-aminomethyl-benzylamide], the IC50 on Human plasma kallikrein is 0.437 µM; against Human KLK1 it was over 10 µM.
Take `Cc1cc(C(=O)NCc2ccc(CN)cc2)c(C)n1Cc1csc(-c2cccc(Cl)c2)n1` [Example 27, 2,5-Dimethyl-1-[2-(3-chlorophenyl)-thiazol-4-ylmethyl]-1H-pyrrole-3-carboxylic acid 4-aminomethyl-benzylamide]: the IC50 at Human plasma kallikrein was 0.848 µM; against Human KLK1 it was over 10 µM.
Consider `Cc1cc(C(=O)NCc2ccc(CN)cc2)c(C)n1Cc1csc(-c2ccc(Cl)cc2)n1` [Example 28, 2,5-Dimethyl-1-[2-(4-chlorophenyl)-thiazol-4-ylmethyl]-1H-pyrrole-3-carboxylic acid 4-aminomethyl-benzylamide], for which the figures for the IC50 at Human plasma kallikrein and on Human KLK1 were 1.33 µM and over 10 µM, respectively.
Take `Cc1cc(C(=O)NCc2ccc(CN)cc2)c(C)n1Cc1ccccc1` [Example 55, 1-Benzyl-2,5-dimethyl-1H-pyrrole-3-carboxylic acid 4-aminomethyl-benzylamide]: the IC50 at Human plasma kallikrein was 3.27 µM.
